Measurements published in paper PMC11638483, “Naringenin chalcone carbon double-bond reductases mediate dihydrochalcone biosynthesis in apple leaves” (Plant Physiology, 2024).

How the values were obtained:
MdNCR1b [1] = assay: product formation assay, varied naringenin chalcone […]; assay type: biochemical, Malus domestica; settings: 400 µM NADPH, Bis-Tris propane 0.1 M, pH 3.0, 30 °C, 30 min; read-out: Km (apparent)
MdNCR1b [2] = assay: product formation assay, varied NADPH […]; assay type: biochemical, Malus domestica; settings: 100 µM naringenin chalcone, Bis-Tris propane 0.1 M, pH 3.0, 30 °C, 30 min

Row | Km (MdNCR1b [1]) | Km (MdNCR1b [2]) | SMILES
1 | 9.9 ± 2.6 µM |  | O=C(/C=C/c1ccc(O)cc1)c1c(O)cc(O)cc1O [compound 1, 2ʹ,4,4ʹ,6ʹ-tetrahydroxychalcone]
2 |  | 23.1 ± 9.4 µM | NC(=O)C1=CN([C@@H]2O[C@H](COP(=O)(O)OP(=O)(O)OC[C@H]3O[C@@H](n4cnc5c(N)ncnc54)[C@H](OP(=O)(O)O)[C@@H]3O)[C@@H](O)[C@H]2O)C=CC1 [NADPH]
